# According to US20150023989A1, “NEW ANTIBODY DRUG CONJUGATES (ADCS) AND THE USE THEREOF” (SEATTLE GENETICS, INC., priority 2011, published 2015):
# Structures can show the parent of a compound that is named as a salt. Where a SMILES comes first, the peptide text is derived from it. [ ]: non-standard residue; d: D form. The star is where a group is joined. X2 = CC(C)[C@@H](C(=O)*)N(C)CCCCCCN1C(=O)CC(SC[C@H](N)C(=O)O)C1=O; X3 = CC(C)[C@@H](C(=O)*)N(C)CCOCCOCCOCCC(=O)NCCCC[C@H](N)C(=O)O; X1 = CC(C)[C@@H](C(=O)*)N(C)CCCCCC(=O)NCCCC[C@H](N)C(=O)O; Dolaproine = CO[C@@H]([C@@H]1CCCN1)[C@@H](C)C(=O)O; Dil = CC[C@H](C)[C@H](NC)[C@@H](CC(=O)O)OC; Oxazinan2yl(1,2) = C1CCN(*)OC1
# Tests used:
# tubulin = assay: Fluorescence-based microtubule polymerisation assay; format: biochemical; details: rate at 1 μM MMAF set at 100%
# Description: Tubulin polymerization was investigated using the “Fluorescence-based Microtubule Polymerisation Assay Kit” from Cytoskeleton (Denver, Colo., USA; order number: BK011). With this assay, GTP is added to unpolymerized tubulin, allowing polymerization to take place spontaneously. The assay is based on the binding of the fluorophore 4′,6-diamidino-2-phenylindole (DAPI) to tubulin. Free and bound DAPI can be differentiated on the basis of different emission spectra.
# In addition to the buffer control, paclitaxel, with a polymerization-increasing effect, and vinblastin, with a polymerization inhibiting effect, were run additionally as assay controls. Measurement was carried out using 96-well plates with a half base area. The kinetics of the tubulin polymerization were monitored in a Fluorimeter at 37° C. for 1 hour. The excitation wavelength was 355 nm, and emission was monitored at 460 nm. For the region of linear increase within the first 10 minutes, a calculation was made of the change in fluorescence per minute (ΔF/min), which represents the polymerization rate of the microtubuli. The potency of the test substances was quantified on the basis of their respective reduction of the polymerization rate. Table 6 below gives data for the influence of representative working examples on tubulin polymerization.
# [1] = Flux assay using Caco-2 cells (cell permeability); format: in vitro ADME; details: human, 2 hours incubation
# Description: The cell permeability of a substance can be investigated by means of in vitro testing in a flux assay using Caco-2 cells [M. D. Troutman and D. R. Thakker, Pharm. Res. 20 (8), 1210-1224 (2003)]. For this purpose, the cells were cultured for 15-16 days on 24-well filter plates. For the determination of permeation, the respective working example was applied in a HEPES buffer to the cells either apically (A) or basally (B) and incubated for 2 hours. After 0 hours and after 2 hours, samples were taken from the cis and trans compartments. The samples were separated by HPLC (Agilent 1200, Böblingen, Germany) using reverse phase columns. The HPLC system was coupled via a Turbo Ion Spray Interface to a Triple Quadropol mass spectrometer API 4000 (Applied Biosystems Applera, Darmstadt, Germany). The permeability was evaluated on the basis of a Papp value, which was calculated using the formula published by Schwab et al. [D. Schwab et al., J. Med. Chem. 46, 1716-1725 (2003)].
structure (smiles),measurement,setting,value
"CC[C@H](C)[C@@H]([C@@H](CC(=O)N1CCC[C@H]1[C@H](OC)[C@@H](C)C(=O)N[C@@H](Cc1c[nH]c2ccccc12)C(=O)N1CCCCO1)OC)N(C)C(=O)[C@@H](NC(=O)[C@H](C(C)C)N(C)CCOCCOCCOCCC(=O)NCCCC[C@H](N)C(=O)O)C(C)C [Example 20, N-[(18S)-18-Amino-18-carboxy-12-oxo-3,6,9-trioxa-13-azaoctadec-1-yl]-N-methyl-L-valyl-N-[(3R,4S,5S)-1-{(2S)-2-[(1R,2R)-3-{[(2S)-3-(1H-indol-3-yl)-1-(1,2-oxazinan-2-yl)-1-oxopropan-2-yl]amino}-1-methoxy-2-methyl-3-oxopropyl]pyrrolidin-1-yl}-3-methoxy-5-methyl-1-oxoheptan-4-yl]-N-methyl-L-valinamide trifluoroacetate] (X3-V[Dil][Dolaproine]W-{Oxazinan2yl(1,2)})",Tubulin polymerization in the presence of toxophore,tubulin; toxophore 1 μM,60%
same,Tubulin polymerization in the presence of toxophore,tubulin; toxophore 10 μM,0%
"CC[C@H](C)[C@@H]([C@@H](CC(=O)N1CCC[C@H]1[C@H](OC)[C@@H](C)C(=O)N[C@@H](Cc1c[nH]c2ccccc12)C(=O)O)OC)N(C)C(=O)[C@@H](NC(=O)[C@H](C(C)C)N(C)CCCCCCN1C(=O)CC(SC[C@H](N)C(=O)O)C1=O)C(C)C (stereo partly drawn) [Example 23, N-[6-(3-{[(2R)-2-Amino-2-carboxyethyl]sulphanyl}-2,5-dioxopyrrolidin-1-yl)hexyl]-N-methyl-L-valyl-N-[(3R,4S,5S)-1-{(2S)-2-[(1R,2R)-3-{[(1S)-1-carboxy-2-(1H-indol-3-yl)ethyl]amino}-1-methoxy-2-methyl-3-oxopropyl]pyrrolidin-1-yl}-3-methoxy-5-methyl-1-oxoheptan-4-yl]-N-methyl-L-valinamide] (X2-V[Dil][Dolaproine]W-OH)",Papp B→A at 2 h,[1],0.1 ×10⁻⁶ cm/s
"CC[C@H](C)[C@@H]([C@@H](CC(=O)N1CCC[C@H]1[C@H](OC)[C@@H](C)C(=O)N[C@@H](Cc1c[nH]c2ccccc12)C(=O)N1CCCCO1)OC)N(C)C(=O)[C@@H](NC(=O)[C@H](C(C)C)N(C)CCCCCCN1C(=O)CC(SC[C@H](N)C(=O)O)C1=O)C(C)C (stereo partly drawn) [Example 24, N-[6-(3-{[(2R)-2-Amino-2-carboxyethyl]sulphanyl}-2,5-dioxopyrrolidin-1-yl)hexyl]-N-methyl-L-valyl-N-[(3R,4S,5S)-1-{(2S)-2-[(1R,2R)-3-{[(2S)-3-(1H-indol-3-yl)-1-(1,2-oxazinan-2-yl)-1-oxopropan-2-yl]amino}-1-methoxy-2-methyl-3-oxopropyl]pyrrolidin-1-yl}-3-methoxy-5-methyl-1-oxoheptan-4-yl]-N-methyl-L-valinamide] (X2-V[Dil][Dolaproine]W-{Oxazinan2yl(1,2)})",Tubulin polymerization in the presence of toxophore,tubulin; toxophore 1 μM,121%
same,Tubulin polymerization in the presence of toxophore,tubulin; toxophore 10 μM,35%
"CC[C@H](C)[C@@H]([C@@H](CC(=O)N1CCC[C@H]1[C@H](OC)[C@@H](C)C(=O)N[C@@H](Cc1ccc(O)cc1)C(=O)N1CCCCO1)OC)N(C)C(=O)[C@@H](NC(=O)[C@H](C(C)C)N(C)CCCCCC(=O)NCCCC[C@H](N)C(=O)O)C(C)C [Example 36, N-(6-{[(5S)-5-Amino-5-carboxypentyl]amino}-6-oxohexyl)-N-methyl-L-valyl-N-[(3R,4S,5S)-1-{(2S)-2-[(1R,2R)-3-{[(2S)-3-(4-hydroxyphenyl)-1-(1,2-oxazinan-2-yl)-1-oxopropan-2-yl]amino}-1-methoxy-2-methyl-3-oxopropyl]pyrrolidin-1-yl}-3-methoxy-5-methyl-1-oxoheptan-4-yl]-N-methyl-L-valinamide trifluoroacetate] (X1-V[Dil][Dolaproine]Y-{Oxazinan2yl(1,2)})",Papp B→A at 2 h,[1],0.15 ×10⁻⁶ cm/s
